Experiment [1] has as its system normal human fibroblasts (Tig-1). The experiment can be described thus: BMI-1/Ring1B (PRC1) CAP body formation in normal fibroblasts after treatment with DNA demethylating agent, immunofluorescence and 1q12 DNA FISH. It counts as cell-based. Particulars: for number of CAP positive cells: 0.2 ug/ml added fresh daily. The text has this: (§1) FIGS. 6A-6E. […] FIG. 6C is a photomicrograph showing that longer treatment (8 days total) results in aberrant expression of Sat II RNA from other loci that are not associated with BMI-1 bodies.
(§2) Importantly, aberrant Sat II RNA foci also appeared with longer term 5-aza-2d treatment, and importantly from sites distinct from 1q12 bearing the accumulated BMI-1 bodies (FIG. 6C). Aberrant Sat II expression was not seen in control or 1 day treated cells, was rare on day 3 and in ˜5-10% of cells by day 8. These findings reveal significant mechanistic insight into why PcG proteins so markedly accumulate at 1q12 in cancer but not normal cells, and provide important evidence of a link between two intensely studied areas of cancer epigenetics, DNA methylation and polycomb proteins.
(§3) Twenty two cell lines were examined in this study (list in Supplement), and grown in conditions recommended by suppliers (ATCC, Cambrex, and Coriell). 5-azacytidine (6 mM) and 5-aza-2′deoxycytidine (0.2 ug/ml) was added fresh daily to asynchronously growing cultures and refreshed every day. Our standard fixation protocols have been detailed previously (Johnson et al., 1991; Tam et al., 2002), and summarized in the Supplement. Human effusions were fixed as for cultured cells and tissue blocks were cryosectioned onto cold glass slides (HistoBond+), and stored at −80 briefly until fixation. Of four fixations tested (Supplement) the one that gave best results was brief triton extraction followed by paraformaldehyde fixation and storage in ETOH.
Simultaneous DNA/RNA and antibody detection: Most antibodies were used prior to RNA or DNA hybridization. Briefly, slides were incubated in the appropriate dilution of primary antibody in 1% BSA, 1xPBS and 1 U/ul RNasin, for 1 hour at 37 C. Slides were washed, and immunodetection was performed using 1:500 dilution of appropriately conjugated (Alexa 488 or Alexa 594, Invitrogen) secondary (anti-goat, mouse or rabbit) antibody, in 1×PBS with 1% BSA. The antibody signal is fixed in 4% paraformaldehyde for 10 min prior to hybridization (performed as detailed above), and all slides were counter stained with DAPI. Vectashield (Vector Labs) was used as mounting media for all fluorescence imaging.

Experiment [2] has the same test system. The experiment can be described thus: Aberrant Sat II RNA foci in normal fibroblasts after treatment with DNA demethylating agent, RNA FISH. It counts as cell-based.
Description: as §1, §2, §3
Sat2-24 nt LNA was used for most images unless otherwise indicated. Several methods of Sat 2 probe labeling and detection were tested (see below). RNA-specific hybridization was carried out under non-denaturing conditions where the DNA was not accessible. Oligos were usually hybridized at 15% formamide conditions, but were also compared to higher stringency hybridizations at 40% and 50% formamide. […]

A further experiment relates to Sat II on Chromosome 1. The note with it: Ji et al., 1997; cited from earlier work.

With `Nc1ncn([C@H]2C[C@H](O)[C@@H](CO)O2)c(=O)n1` [5-aza-2d, 5-aza-2′-deoxycytidine], the entries for the “number of CAP bodies per cell” value in experiment [1] (Day 1 of treatment) and in experiment [1] (Day 8 of treatment) were ~2 and ~4, respectively. For the same molecule, the “number of CAP positive cells” value came out at 15% in experiment [1] (Day 1 of treatment), 52% in experiment [1] (Day 3 of treatment) and 80% in experiment [1] (Day 8 of treatment). The “aberrant Sat II expression (Sat II RNA foci)” value in experiment [2] (1 day treated cells) was “not seen”; in experiment [2] (day 3 of treatment) it was “rare”. For the same molecule, in experiment [2] (day 8 of treatment), the “aberrant Sat II expression (Sat II RNA foci), cells positive” value is 5-10 % of cells. Further, the “demethylation of Sat II on Chromosome 1” value in the experiment with Sat II on Chromosome 1 is “effectively demethylate Sat II on Chromosome 1”.

The values are drawn from patent US20140213475A1, “METHODS OF DIAGNOSING CANCER USING EPIGENETIC BIOMARKERS” (University of Massachusetts, priority 2011, published 2014).
